Data published in US9649392B2, “Central nervous system labelling composition for intranasal administration and labelling method and screening method using central nervous system labelling composition for intranasal administration” (CANON KABUSHIKI KAISHA, priority 2009, dated 2017).

Tested on: central nervous system of the zebrafish
Experiment: dyeing of the central nervous system of juvenile zebrafish after exposure to dye solution, fluorescence/confocal microscope observation over time
Assay type: in vivo
Details: 7 dpf juvenile zebrafish; for dyeing of nerve cells of the central nervous system: confocal microscope; for dyed state of the central nervous system (transfer of dyeability with time from nasal cavity via olfactory bulb): left 1 hour, washed, observed at time intervals
Experimental: Distilled water was added to a 1 mg/mL DMSO solution of compound 1 (as expressed by the formula (5) above) to obtain a dye solution 1 containing the compound 1 to a concentration of 200 ng/mL. 1 mL of the dye solution 1 and a 7-day-old (7 dpf) juvenile fish of zebrafish were put into an arbitrarily selected well of a 24-hole multi plate (available from IWAKI) and left there for an hour. Thereafter, the dye solution 1 in the well was removed and an operation of replacing it with 1 mL of distilled water was repeated three times in ten minutes. The elapsed time after the last solution replacing operation was measured and the juvenile fish was taken out from the well when a predetermined time period had elapsed. The juvenile fish was buried in 5% low melting-point agarose gel on a glass slide to restrict any movement and the dyed state of the central nervous system of the zebrafish was observed from a lateral side and the vertex by using fluorescent microscope (MZ16FA: available from Leica). The central nervous system was observed by means of a confocal microscope (Pascal Exciter: available from Zeiss). After the observation, the zebrafish was returned into the well and repeatedly observed thereafter at regular time intervals. […]

Compound	dyeing of nerve cells of the central nervous system (dye solution 200 ng/mL)	dyed state of the central nervous system (transfer of dyeability with time from nasal cavity via olfactory bulb) (dye solution 200 ng/mL)	dyeing of nerve cells of the central nervous system (dye solution 500 ng/mL)	dyed state of the central nervous system (transfer of dyeability with time from nasal cavity via olfactory bulb) (dye solution 500 ng/mL)
CCN1/C(=C\C=C\C2=[N+](CC)c3ccccc3C23CCCCC3)C2(CCCCC2)c2ccccc21 [compound 1]	nerve cells of the central nervous system were also dyed	firstly the nasal cavity, then the olfactory bulb and finally the central nervous system were sequentially dyed		
CC/N=c1\cc2oc3cc(NCC)c(C)cc3c(-c3ccccc3C(=O)OCC)c-2cc1C [compound 2]			nerve cells of the central nervous system were also dyed	firstly the nasal cavity, then the olfactory bulb and finally the central nervous system were sequentially dyed
CCN1c2ccc(/C=C/C3=[N+](CC)c4ccc(OC)cc4C34CCCCC4)cc2C2CCCC21 (stereo not drawn) [compound 3]			nerve cells of the central nervous system were also dyed	firstly the nasal cavity, then the olfactory bulb and finally the central nervous system were sequentially dyed
